These results are taken from patent US10168342B2, “Lipid probes and uses thereof” (THE SCRIPPS RESEARCH INSTITUTE, priority 2015, dated 2019).

For assay [1], the target named is T1, AEA-DA lipid probe targets in Neuro2a cells (Mus musculus, UniProt P42125).
T1 sequence (P42125 29-289): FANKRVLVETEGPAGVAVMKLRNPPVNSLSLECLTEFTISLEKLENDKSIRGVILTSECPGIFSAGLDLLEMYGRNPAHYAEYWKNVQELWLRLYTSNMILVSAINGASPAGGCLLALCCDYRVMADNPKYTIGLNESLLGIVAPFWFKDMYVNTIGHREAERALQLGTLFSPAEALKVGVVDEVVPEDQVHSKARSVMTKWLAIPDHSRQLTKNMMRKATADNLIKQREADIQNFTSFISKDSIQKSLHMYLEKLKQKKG

For assay [2], the target named is T2, AEA-DA lipid probe targets in Neuro2a cells (Mus musculus, UniProt Q8VDP6).
T2 sequence (Q8VDP6 1-213): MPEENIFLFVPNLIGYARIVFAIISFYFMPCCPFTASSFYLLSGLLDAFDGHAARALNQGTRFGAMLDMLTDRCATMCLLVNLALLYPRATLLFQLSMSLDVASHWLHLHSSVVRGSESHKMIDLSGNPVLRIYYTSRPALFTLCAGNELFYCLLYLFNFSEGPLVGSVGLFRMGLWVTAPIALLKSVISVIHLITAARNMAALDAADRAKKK

For assay [3], the target named is T3, AEA-DA lipid probe targets in Neuro2a cells (Mus musculus, UniProt Q8CHK3).
T3 sequence (Q8CHK3 1-473): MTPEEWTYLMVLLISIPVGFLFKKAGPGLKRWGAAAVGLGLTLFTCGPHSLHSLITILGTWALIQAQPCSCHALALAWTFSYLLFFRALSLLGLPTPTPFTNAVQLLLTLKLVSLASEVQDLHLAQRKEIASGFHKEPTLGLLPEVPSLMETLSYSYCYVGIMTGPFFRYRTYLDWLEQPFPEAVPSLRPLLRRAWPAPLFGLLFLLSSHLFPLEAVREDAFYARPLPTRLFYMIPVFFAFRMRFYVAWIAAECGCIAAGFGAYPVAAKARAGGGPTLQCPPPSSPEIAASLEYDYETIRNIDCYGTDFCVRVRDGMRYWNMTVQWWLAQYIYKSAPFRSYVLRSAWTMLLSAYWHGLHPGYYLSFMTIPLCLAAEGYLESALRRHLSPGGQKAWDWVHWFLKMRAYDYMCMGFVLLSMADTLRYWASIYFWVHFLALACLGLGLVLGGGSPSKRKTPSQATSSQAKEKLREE

In assay [4] the target is AEA-DA lipid probe targets in Neuro2a cells (Mus musculus, UniProt O35129).
In assay [5] the target is T4, AEA-DA lipid probe targets in Neuro2a cells (Mus musculus, UniProt P18572).
T4 sequence (P18572 22-389): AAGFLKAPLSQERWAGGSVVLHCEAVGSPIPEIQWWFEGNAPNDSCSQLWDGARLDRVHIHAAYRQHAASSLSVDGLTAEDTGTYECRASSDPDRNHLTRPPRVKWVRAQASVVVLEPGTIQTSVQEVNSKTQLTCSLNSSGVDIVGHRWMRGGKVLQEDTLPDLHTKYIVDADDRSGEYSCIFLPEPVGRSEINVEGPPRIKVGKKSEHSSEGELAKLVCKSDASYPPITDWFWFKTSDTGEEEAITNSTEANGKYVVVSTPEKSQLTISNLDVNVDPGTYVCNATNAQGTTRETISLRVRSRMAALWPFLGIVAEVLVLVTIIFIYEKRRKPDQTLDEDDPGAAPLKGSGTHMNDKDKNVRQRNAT

Assay [6] addresses T5, AEA-DA lipid probe targets in Neuro2a cells (Mus musculus, UniProt Q9D1D4).
T5 sequence (Q9D1D4 32-219): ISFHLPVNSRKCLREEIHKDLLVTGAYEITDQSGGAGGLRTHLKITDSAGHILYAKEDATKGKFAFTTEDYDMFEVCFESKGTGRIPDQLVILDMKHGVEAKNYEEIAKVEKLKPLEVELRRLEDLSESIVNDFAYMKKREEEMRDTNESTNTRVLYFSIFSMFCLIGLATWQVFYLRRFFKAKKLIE

Assay [7] has as its target T6, AEA-DA lipid probe targets in Neuro2a cells (Mus musculus, UniProt Q9WU62).
T6 sequence (Q9WU62 1-880): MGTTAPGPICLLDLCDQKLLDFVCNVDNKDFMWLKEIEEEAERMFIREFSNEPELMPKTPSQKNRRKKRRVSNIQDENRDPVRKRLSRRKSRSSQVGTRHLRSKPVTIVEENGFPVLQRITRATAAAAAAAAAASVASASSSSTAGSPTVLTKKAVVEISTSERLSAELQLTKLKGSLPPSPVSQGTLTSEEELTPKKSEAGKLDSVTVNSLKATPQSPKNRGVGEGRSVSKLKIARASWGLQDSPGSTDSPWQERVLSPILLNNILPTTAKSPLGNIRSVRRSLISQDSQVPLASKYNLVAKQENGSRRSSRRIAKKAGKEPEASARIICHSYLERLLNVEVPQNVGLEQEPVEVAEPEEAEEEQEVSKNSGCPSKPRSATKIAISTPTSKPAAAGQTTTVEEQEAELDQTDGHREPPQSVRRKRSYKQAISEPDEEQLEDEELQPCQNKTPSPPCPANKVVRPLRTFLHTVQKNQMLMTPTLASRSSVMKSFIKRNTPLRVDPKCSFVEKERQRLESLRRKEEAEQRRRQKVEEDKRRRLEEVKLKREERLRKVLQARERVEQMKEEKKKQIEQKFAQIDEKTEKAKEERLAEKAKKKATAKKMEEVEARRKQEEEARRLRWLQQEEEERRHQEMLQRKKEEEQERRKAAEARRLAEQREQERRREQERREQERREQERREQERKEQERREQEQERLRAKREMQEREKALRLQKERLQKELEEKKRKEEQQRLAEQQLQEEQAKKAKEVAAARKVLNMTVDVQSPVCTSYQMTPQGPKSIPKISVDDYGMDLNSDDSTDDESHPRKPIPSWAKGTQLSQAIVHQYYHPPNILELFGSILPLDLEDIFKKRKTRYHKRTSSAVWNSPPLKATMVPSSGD

Where two headings read alike, the source gives them in different places.

Sequence of AEA-DA lipid probe targets in Neuro2a cells (Mus musculus, UniProt O35129) (O35129 whole entry): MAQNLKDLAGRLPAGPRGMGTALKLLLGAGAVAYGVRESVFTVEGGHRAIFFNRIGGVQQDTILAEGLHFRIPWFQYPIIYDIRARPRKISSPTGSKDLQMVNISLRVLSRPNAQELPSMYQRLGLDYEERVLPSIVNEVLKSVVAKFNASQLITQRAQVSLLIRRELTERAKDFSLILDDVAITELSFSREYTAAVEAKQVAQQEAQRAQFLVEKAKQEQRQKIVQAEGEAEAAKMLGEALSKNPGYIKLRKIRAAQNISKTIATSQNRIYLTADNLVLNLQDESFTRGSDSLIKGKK

Take `C=CCN(C)CCCCCCOc1ccc(C(=O)c2ccc(Br)cc2)c(F)c1` [Ro 48-8071, reference compound]: the “SILAC ratio, Eci1” value in assay [1] (competitor 25 μM) was found to be 0.9. Besides, in assay [2] (competitor 25 μM), the “SILAC ratio, Cdipt” value is reported as 0.7. Besides, in assay [3] (competitor 25 μM), the “SILAC ratio, Mboat7” value is on record as 1.1. Moreover, the “SILAC ratio Phb2” value in assay [4] (competitor 25 μM) came to 0.9. The “SILAC ratio Bsg” value in assay [5] (competitor 25 μM) amounted to 1.1. Further, the “SILAC ratio, Tmed10” value in assay [6] (competitor 25 μM) was 1.0.
Regarding `CN1CCN(C(=O)c2[nH]c3ccc([N+](=O)[O-])cc3c2-c2ccccc2)CC1` [MJN228, (4-Methylpiperazin-1-yl)(5-nitro-3-phenyl-1H-indol-2-yl)methanone], the “SILAC ratio, Eci1” value is 1.4 in assay [1] (competitor 10 μM), 2.0 in assay [1] (competitor 25 μM), 2.4 in assay [1] (competitor 50 μM) and 3.8 in assay [1] (competitor 100 μM). The “SILAC ratio, Cdipt” value in assay [2] (competitor 10 μM) stood at 1.0; in assay [2] (competitor 25 μM), 1.0; in assay [2] (competitor 50 μM) it was 0.7; in assay [2] (competitor 100 μM), 0.8. Besides, the “SILAC ratio, Mboat7” value in assay [3] (competitor 10 μM) worked out at 1.2; in assay [3] (competitor 25 μM), 1.6; in assay [3] (competitor 50 μM), 1.9; in assay [3] (competitor 100 μM) it was 2.3. Further, the “SILAC ratio Phb2” value in assay [4] (competitor 10 μM) was found to be 1.3; in assay [4] (competitor 25 μM), 1.2; in assay [4] (competitor 50 μM), 1.4; in assay [4] (competitor 100 μM), 1.5. In addition, the “SILAC ratio Bsg” value came out at 1.4 in assay [5] (competitor 10 μM), 1.6 in assay [5] (competitor 25 μM), 1.2 in assay [5] (competitor 50 μM) and 1.6 in assay [5] (competitor 100 μM). For the same compound, the “SILAC ratio, Tmed10” value in assay [6] (competitor 10 μM) is 1.1; in assay [6] (competitor 25 μM), 1.4; in assay [6] (competitor 50 μM), 1.5; in assay [6] (competitor 100 μM), 1.6. Also, the “SILAC ratio Incenp” value turned out to be 1.4 in assay [7] (competitor 10 μM), 1.2 in assay [7] (competitor 25 μM), 1.8 in assay [7] (competitor 50 μM) and 1.7 in assay [7] (competitor 100 μM).
As to `CCCCC/C=C\C/C=C\C/C=C\C/C=C\CCCC(=O)NCCO` [AEA, anandamide, reference compound], in assay [1] (competitor 200 μM), the “SILAC ratio, Eci1” value was found to be 2.0. For the same compound, in assay [2] (competitor 200 μM), the “SILAC ratio, Cdipt” value is listed as 1.8. Further, in assay [4] (competitor 200 μM), the “SILAC ratio Phb2” value is listed as 1.2. In addition, the “SILAC ratio Bsg” value in assay [5] (competitor 200 μM) came out at 1.3. For the same compound, the “SILAC ratio, Tmed10” value in assay [6] (competitor 200 μM) is 1.5. For the same compound, in assay [7] (competitor 200 μM), the “SILAC ratio Incenp” value came to 1.4.
Take `CN1CCN(C(=O)c2c(-c3ccccc3)c3cc([N+](=O)[O-])ccc3n2C)CC1` [KML110, (1-Methyl-5-nitro-3-phenyl-1H-indol-2-yl)(4-methylpiperazin-1-yl)methanone]: the “SILAC ratio, Eci1” value in assay [1] (competitor 25 μM) came to 1.5. In addition, the “SILAC ratio, Cdipt” value in assay [2] (competitor 25 μM) was found to be 0.9. Besides, the “SILAC ratio, Mboat7” value in assay [3] (competitor 25 μM) was 1.7. In assay [4] (competitor 25 μM), the “SILAC ratio Phb2” value came to 1.3. Moreover, the “SILAC ratio Bsg” value in assay [5] (competitor 25 μM) stood at 1.3. In addition, the “SILAC ratio, Tmed10” value in assay [6] (competitor 25 μM) is 1.2. Moreover, the “SILAC ratio Incenp” value in assay [7] (competitor 25 μM) turned out to be 1.2.
Turning to `O=C(/C=C/c1cccnc1)NCCCCC1CCN(C(=O)c2ccccc2)CC1` [FK-866, reference compound], in assay [1] (competitor 25 μM), the “SILAC ratio, Eci1” value is reported as 1.2. The “SILAC ratio, Cdipt” value in assay [2] (competitor 25 μM) is given as 1.1. Further, the “SILAC ratio, Mboat7” value in assay [3] (competitor 25 μM) is 1.1. Moreover, the “SILAC ratio Phb2” value in assay [4] (competitor 25 μM) came to 1.1. Besides, in assay [5] (competitor 25 μM), the “SILAC ratio Bsg” value is 1.0. In addition, the “SILAC ratio, Tmed10” value in assay [6] (competitor 25 μM) amounted to 1.1. For the same compound, the “SILAC ratio Incenp” value in assay [7] (competitor 25 μM) came out at 0.8.
